Test [1] addresses T1, Histone deacetylase 11 (Homo sapiens) (UniProt Q96DB2).
T1 sequence (whole entry): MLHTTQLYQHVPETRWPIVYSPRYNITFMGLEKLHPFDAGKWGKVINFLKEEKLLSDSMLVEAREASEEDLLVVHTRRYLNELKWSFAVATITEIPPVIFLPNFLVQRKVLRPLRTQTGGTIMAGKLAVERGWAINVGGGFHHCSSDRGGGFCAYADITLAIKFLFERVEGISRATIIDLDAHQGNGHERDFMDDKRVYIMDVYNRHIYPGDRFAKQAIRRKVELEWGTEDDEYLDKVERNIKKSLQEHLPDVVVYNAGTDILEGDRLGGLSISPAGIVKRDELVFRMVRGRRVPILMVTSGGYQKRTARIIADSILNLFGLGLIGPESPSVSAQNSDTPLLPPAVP
The test can be described thus: Inhibition of recombinant C-terminal His-tagged HDAC11 (unknown origin) expressed in baculovirus infected Sf9 cells at 2 uM using Ac-Arg-Gly-Lys(Ac)-AMC as substrate pretreated for 3 hrs followed by substrate addition after 30 mins in presence of 0.2 uM SAHA by fluorometric method relative to control.

The target of test [2] is T1, Histone deacetylase 11 (Homo sapiens). The test can be described thus: Inhibition of recombinant C-terminal His-tagged HDAC11 (unknown origin) expressed in baculovirus infected Sf9 cells at 2 uM using Ac-Arg-Gly-Lys(Ac)-AMC as substrate pretreated for 3 hrs followed by substrate addition after 30 mins by fluorometric method relative to control.
Test [3] addresses T2, Histone deacetylase 11 (Homo sapiens, UniProt Q96DB2).
T2 sequence (Q96DB2 whole entry): T1 sequence (whole entry)
The test can be described thus: Inhibition of recombinant C-terminal His-tagged HDAC11 (unknown origin) expressed in baculovirus infected Sf9 cells using Ac-Arg-Gly-Lys(Ac)-AMC as substrate pretreated for 3 hrs followed by substrate addition after 30 mins by fluorometric method.

The target in test [4] is T2, Histone deacetylase 11. The test can be described thus: Inhibition of recombinant C-terminal His-tagged HDAC11 (unknown origin) expressed in baculovirus infected Sf9 cells using Ac-Arg-Gly-Lys(Ac)-AMC as substrate pretreated for 3 hrs followed by substrate addition after 30 mins in presence of 0.2 uM SAHA by fluorometric method.
Test [5] has as its target T1, Histone deacetylase 11 (Homo sapiens). The test can be described thus: Inhibition of recombinant C-terminal His-tagged HDAC11 (unknown origin) expressed in baculovirus infected Sf9 cells at 5 uM using Ac-Arg-Gly-Lys(Ac)-AMC as substrate pretreated followed by substrate addition after 30 mins by fluorometric method. Particulars: TDE = time-dependent effect.

pIC50: −log10 of the molar value. Some results are limits rather than exact numbers.

In general, inhibition refers to the relative decrease from the control value, in per cent. The pIC50 is the negative decadic logarithm of the IC50, by convention in mol/L.

Turning to `Nc1ccccc1NC(=O)/C=C/c1cn([C@@H]2C[C@@H](CO)N(CCc3ccccc3)C2)nn1`, the inhibition in test [1] was less than 10%.
With `Nc1ccccc1NC(=O)/C=C/c1cn([C@@H]2C[C@@H](CO)N(CCCc3ccccc3)C2)nn1`, the inhibition was 13% in test [1] and less than 10% in test [2].
Regarding `Nc1ccccc1NC(=O)/C=C/c1cn([C@H]2C[C@@H](CO)N(CCc3ccccc3)C2)nn1`, the inhibition was 20% in test [1] and less than 10% in test [2].
As for `Nc1ccccc1NC(=O)/C=C/c1cn([C@@H]2C[C@H](CO)N(CCc3ccccc3)C2)nn1`, the inhibition in test [1] was less than 10%; in test [2] it was less than 0%.
With `Nc1ccccc1NC(=O)/C=C/c1cn([C@@H]2C[C@@H](C(=O)O)N(CCc3ccccc3)C2)nn1`, the inhibition in test [1] and in test [2] was less than 10% in each case.
On to `Nc1ccccc1NC(=O)/C=C/c1cn([C@@H]2C[C@H](C(=O)O)N(CCc3ccccc3)C2)nn1`, for which the inhibition in test [1] is less than 10%; in test [2] it was less than 0%.
As for `Nc1ccccc1NC(=O)/C=C/c1cn([C@H]2C[C@@H](CO)N(Cc3ccccc3)C2)nn1`, the negative logarithm of the IC50 (pIC50) in test [3] was 5.67. For the same compound, the inhibition came to 36% in test [1] and 31% in test [2].
With `Nc1ccccc1NC(=O)/C=C/c1cn([C@@H]2C[C@H](CO)N(CCCc3ccccc3)C2)nn1`, the results for the inhibition in test [1] and in test [2] were 12% and less than 0%, respectively.
Take `Nc1ccccc1NC(=O)/C=C/c1cn([C@H]2C[C@@H](C(=O)O)N(CCc3ccccc3)C2)nn1`: the inhibition in test [1] is less than 10%.
With `Nc1ccccc1NC(=O)/C=C/c1cn([C@H]2C[C@H](CO)N(CCCc3ccccc3)C2)nn1`, the inhibition was 16% in test [1] and less than 10% in test [2].
Consider `Nc1ccccc1NC(=O)/C=C/c1cn([C@@H]2C[C@H](C(=O)O)N(CCCc3ccccc3)C2)nn1`, for which the inhibition in test [1] and in test [2] was less than 10% each time.
On to `Nc1ccccc1NC(=O)/C=C/c1cn([C@H]2C[C@@H](C(=O)O)N(CCCc3ccccc3)C2)nn1`, for which the inhibition in test [1] is less than 10%; in test [2], less than 0%.
For the compound `Nc1ccccc1NC(=O)/C=C/c1cn([C@@H]2C[C@H](CO)N(Cc3ccccc3)C2)nn1`, the figures for the inhibition in test [1] and in test [2] were 14% and less than 10%, respectively.
As to `Nc1ccccc1NC(=O)/C=C/c1cn([C@H]2C[C@@H](C(=O)O)N(Cc3ccccc3)C2)nn1`, the inhibition in test [1] is less than 10%; in test [2], less than 0%.
Consider `Nc1ccccc1NC(=O)/C=C/c1cn([C@H]2C[C@H](CO)N(CCc3ccccc3)C2)nn1`, for which the inhibition in test [1] and in test [2] was less than 10% throughout.
As for `Nc1ccccc1NC(=O)/C=C/c1cn([C@H]2C[C@@H](CO)N(CCCc3ccccc3)C2)nn1`, the figures for the inhibition in test [1] and in test [2] were 19% and less than 0%, respectively.
Turning to `Nc1ccccc1NC(=O)/C=C/c1cn([C@H]2C[C@H](C(=O)O)N(CCc3ccccc3)C2)nn1`, the inhibition in test [1] was less than 10%; in test [2] it was less than 0%.
Take `Nc1ccccc1NC(=O)/C=C/c1cn([C@H]2C[C@H](CO)N(Cc3ccccc3)C2)nn1`: the inhibition in test [1] was 14%; in test [2] it was less than 0%.
For `Nc1ccccc1NC(=O)/C=C/c1cn([C@@H]2C[C@@H](C(=O)O)N(CCCc3ccccc3)C2)nn1`, the inhibition in test [1] and in test [2] was less than 10% each time.
For the compound `Nc1ccccc1NC(=O)c1ccc(CNC(=O)OCc2cccnc2)cc1` [ENTINOSTAT], the pIC50 in test [4] was 5.89; in test [3] it was 6.05. The inhibition in test [1] is 59%; in test [2] it was 67%; in test [5], “Tde”.
For `Nc1ccccc1NC(=O)/C=C/c1cn([C@@H]2C[C@H](C(=O)O)N(Cc3ccccc3)C2)nn1`, in test [1], the inhibition is less than 10%.
With `Nc1ccccc1NC(=O)/C=C/c1cn([C@H]2C[C@H](C(=O)O)N(Cc3ccccc3)C2)nn1`, the figures for the inhibition in test [1] and in test [2] were less than 10% and 12%, respectively.
As for `Nc1ccccc1NC(=O)/C=C/c1cn([C@@H]2C[C@@H](CO)N(Cc3ccccc3)C2)nn1`, the inhibition in test [1] was 22%; in test [2] it was less than 10%.
On to `Nc1ccccc1NC(=O)/C=C/c1cn([C@@H]2C[C@@H](C(=O)O)N(Cc3ccccc3)C2)nn1`, for which the values for the inhibition in test [1] and in test [2] were less than 10% and less than 0%, respectively.
As for `Nc1ccccc1NC(=O)/C=C/c1cn([C@H]2C[C@H](C(=O)O)N(CCCc3ccccc3)C2)nn1`, the results for the inhibition in test [1] and in test [2] were less than 10% and less than 0%, respectively.

The values are drawn from ChEMBL document CHEMBL4020776, “Stabilizing HDAC11 with SAHA to assay slow-binding benzamide inhibitors” (Bioorg Med Chem Lett, 2017).
